The values below come from patent US12398110B2, “Second generation inhibitors of mitochondrial permeability transition pore with improved plasma stability” (Oregon Health & Science University, priority 2019, dated 2025).

One data set deals with mtPTP. The data set is described as follows: Chemical activator (PhAsO, Diamide, Cu(OP)2, NEM) induced mitochondrial swelling. The following applies: 1.5 μm compound, 10 μm Ca2+ plus PhAsO, Cu(OP)2 or NEM. The data set is classed as biochemical, mouse. As to the method:
[…] graphs compound TR001 prevention of chemical activation induced mitochondrial swelling. FIG. 3A-3D) mouse liver mitochondria (0.25 mg/mL) were treated with 10 μM Ca^2+ only (traces a); 10 μm Ca^2+ and after 2 min of incubation with: FIG. 3A) 7 μm PhAsO, FIG. 3B) 2 mm Diamide, FIG. 3C), 7 μm Cu(OP)2, FIG. 3D), 2 mm NEM (traces b-d). In traces c and d additions were as in traces b except that mitochondria were also treated with 1.5 μmCsA (traces c) or TR001 (traces d). Traces are representative of n=4 independent preparations.
Based on the SAR studies and mouse plasma stability data, we decided to move forward with TR001 for more extensive biological characterization. As noted above, mtPTP is triggered by elevated levels of matrix Ca^2+ and potentiated by oxidative stress, leading to mitochondrial swelling. We therefore next tested the ability of TR001 to protect from oxidizing agent-triggered mtPTP opening. For this purpose, we used known chemical activators of the mtPTP that react with two distinct classes of redox sensitive thiols (—SH) and increase the propensity of mtPTP opening. […]

For data set [1], the system named is isolated mouse liver mitochondria. Description: Oxygen consumption rate of isolated mitochondria (Seahorse XF24). The data set is classed as biochemical. From the text: A thorough evaluation of toxicity is critical for advancing TR001 to in vivo studies. […] To more thoroughly examine mitochondrial toxicity, we analyzed oxygen consumption rates (OCRs) using the Seahorse XF24 extracellular flux analyzer. This allowed us to assess the effects of TR001 on mitochondrial respiration and ATP synthesis. […] Consequently respiratory control ratios (i.e., the ratios between ADP-stimulated and basal respiration) were not affected across the concentrations tested (FIG. 5B). Complex III inhibitor antimycin A shuts down the electron transport chain at the bc1 complex and was used to account for oxygen leak.
Measurement of respiration. Mitochondrial oxygen consumption of isolated mitochondria or HeLa cell monolayer was assessed with the Seahorse Extracellular Flux Analyzer XF24 (Seahorse Bioscience, Billerica, MA, USA). Isolated mouse liver mitochondria: Mitochondrial assay solution contained 220 mm mannitol, 70 mm sucrose, 25 mm MOPS-Tris, 10 mm Pi-Tris, 5 mm MgCl2, 1 mm EGTA-Tris, 0.2% fatty acid free BSA, 5 mm succinate and 2 μm rotenone, pH 7.4. Mitochondria (5 μg, suspended in 50 μL mitochondrial assay solution) were added to each well of an XF24 cell culture microplate, centrifuged at 2000 g for 20 min at 4° C. and then supplemented with 450 μL of mitochondrial assay solution containing 4 mm ADP to initiate the experiments.

Data set [2] deals with col6a1 zebrafish morphants. Description: Spontaneous coiling events in col6a1 zebrafish morphants. The data set is classed as in vivo. The following applies: 24 hpf, 3 hours of treatment, 0.1, 1 or 10 μm. As to the method:
(§1) Zebrafish embryos were injected with col6a1 morpholino at the 1-cell stage, dechorionated at 20 hpf and treated at 21 hpf with 0.1, 1 or 10 μm of either TR001 or 63. DMSO-treated embryos injected with a scrambled morpholino were used as a control. […] It should be noted that in these protocols, embryos were exposed to drugs for a longer period of time than in the spontaneous coiling experiments. This difference may help to explain why TR001 was as effective at 0.1 μm as it was at 1 and 10 μm.
Morpholino antisense injection and treatment. Knock-down of col6a1 gene expression was obtained with a previously published morpholino ^[25] with sequence GAGAGCGGAAGACGAACCTTCATTC (SEQ ID NO: 2; GeneTools, Inc.). A control morpholino with no sequence homology in the zebrafish genome was used in parallel (CCTCTTACCTCAGTTACAATTTATA; SEQ ID NO: 3). […]
Motor activity. The number of spontaneous coiling events performed in 15 seconds by single zebrafish embryos was recorded at 24 hpf by light microscopy. Touch-evoked escape responses were recorded at 48 hpf by observing the ability of zebrafish embryos to escape after a tail-touch with a little tip. […]

For data set [3], the system named is col6a1 zebrafish morphants. The data set is described as follows: Touch-evoked escape response in col6a1 zebrafish morphants. The following applies: 48 hpf, 27 hours of treatment, 0.1, 1 and 10 μm. The data set is classed as in vivo. As to the method:
as §1
Morpholino antisense injection and treatment. Knock-down of col6a1 gene expression was obtained with a previously published morpholino ^[25] with sequence GAGAGCGGAAGACGAACCTTCATTC (SEQ ID NO: 2; GeneTools, Inc.). A control morpholino with no sequence homology in the zebrafish genome was used in parallel (CCTCTTACCTCAGTTACAATTTATA; SEQ ID NO: 3). Zebrafish eggs from wild-type matings were injected at the 1-2 cell stage with approximately 10 nL of 0.1 mm morpholino solution (corresponding to 4 ng of morpholino) using a WPI pneumatic PicoPump PV820 injector (World Precision Instruments, Inc.). Zebrafish embryos were dechorionated at 20 hours post fertilization (hpf) and treated at 21 hpf with increasing doses (0.1, 1 and 10 μm) of both TR001 and 63 compounds dissolved in fish water with 1% DMSO (vehicle).
Motor activity. The number of spontaneous coiling events performed in 15 seconds by single zebrafish embryos was recorded at 24 hpf by light microscopy. Touch-evoked escape responses were recorded at 48 hpf by observing the ability of zebrafish embryos to escape after a tail-touch with a little tip. Embryos were subdivided in 4 groups according to the observed phenotype: paralyzed embryos, score 0; underdeveloped embryos showing only coiling events, score 1; embryos showing lower motility, score 2; normal embryos, score 3.

On to `Cc1ccc(Cl)cc1NC(=O)c1cn(-c2ccc(F)c(O)c2)nn1` [TR001, N-(5-chloro-2-methylphenyl)-1-(4-fluoro-3-hydroxyphenyl)-1H-1,2,3-triazole-4-carboxamide], for which the “effect on oxidizing agent-triggered mtPTP opening” value in the data set with mtPTP is “delayed mtPTP opening”. Besides, the “rates of oxygen consumption (ADP stimulation, oligomycin, FCCP)” value in data set [1] is given as “no effect”. The respiratory control ratios result in data set [1] (across the concentrations tested) was “not affected”. Besides, in data set [2], the spontaneous coiling events result is “partially rescued the defect”. In addition, the “touch-evoked escape response (motility)” value in data set [3] is reported as “improved”.
